Results on eleven compounds are retold here after patent US7423068B2, “Control of parasitic mites of honey bees” (The United States of America as represented by the …, priority 2001, dated 2008).

Where two headings read alike, the source gives them in different places.

The test system of one data set is free-running adult mites. The protocol:
2-Heptanone was tested for miticidal activity in two separate sets of bioassays. In the petri dish bioassays we exposed free-running adult mites to volatiles from 2-heptanone either in pure form or in an acrylic block dispenser (as described in a further experiment, below) and measured mortality over time. Mites were placed in petri dishes (5-10 mites/dish, 4 dishes per treatment and 4 dishes for controls) that were lined on the bottom with damp tissue paper covered with Parafilm®. Holes were punched in the Parafilm® using an insect pin to create a humid environment in the petri dish. A piece of filter paper the same size as the petri dish was placed on top of the Parafilm® sheet. In the first petri dish bioassay, 40 μl of pure 2-heptanone was placed on a piece of filter paper on the lid of the petri dish (treatment dishes). The Control dishes were set up as described above but nothing was added to the piece of filter paper fastened to the lid of the petri dish. The petri dishes were placed in separate incubators for treatments and Controls. Incubator temperatures were maintained at 33-34.4° C. […] In the second bioassay 0.1 g of a 30% concentration of 2-heptanone in acrylic block made as in Example 6 was placed in a plastic weighing boat in the center of petri dishes prepared as described above. Control petri dishes were prepared identically to those containing the acrylic block, but the weighing boat in the center of the dish was empty.
In another series of tests, 2-heptanone, 98+% (Sigrma-Aldrich); 3-heptanone (Fluka Chemika); 4-heptanone (Fluka Chemika); 2-hexanone; 2-octanone, 98% (Aldrich Chemical Co.); 1-heptanol (Fluka Chemika, 99.5% GC), and heptaldehyde, 95% (Aldrich Chemical Co.) were tested in petri dish bioassays wherein free-running adult mites were exposed to 40 μl of pure compound placed on filter paper as described above. The test conditions and Controls were as described above.
The test conditions and Controls were as described above.

The conditions of data set [1]: cited from earlier work.
[2] abbreviates: 40 μl pure compound on filter paper, exposure time 1 hr, S.E. ± 0 unless noted.
Setting [3] is: 40 μl pure compound on filter paper, exposure time 2 hrs, S.E. ± 0 unless noted.

On to `C=C(C)C1CC=C(C)CC1` (single isomer, unassigned; (+)) [d-Limonene, (+)-4-isopropenyl-1-methyl-1-cyclohexene], for which the “Average % Mortality ± S.E. Treatment” value came to 5.0 ± 5.0% in the data set on free-running adult mites (setting [2]) and 55.0 ± 9.57% in the data set on free-running adult mites (setting [3]).
In the same order, the values of `CCC(C)=O` [2-Butanone] are 87.5 ± 7.22% and 77.3 ± 15.6%.
Regarding `CCCCC(C)=O` [2-Hexanone], the “% Mortality Treatment” value with free-running adult mites (40 μl pure compound on filter paper, exposure time 1 hr) was 100%.
For the compound `CCCCCCC(C)=O` [2-Octanone], the “% Mortality Treatment” value with free-running adult mites (in vivo) was 100%.
For `CCCC(C)=O` [2-Pentanone], in data set [1] (in words), the solubility in water entry was “almost insoluble in water”.
As for `CCCCC(=O)CC` [3-Heptanone], the “% Mortality Treatment” value with free-running adult mites (in vivo) was determined as 100%.
On the same count and under the same terms, the same measure for `CCCC(=O)CCC` [4-Heptanone]: 100%.
As to `CC(C)=O` [Acetone], the “Average % Mortality ± S.E. Treatment” value with free-running adult mites (setting [2]) is recorded as 48 ± 8.65%; in the data set with free-running adult mites (setting [3]), 81.2 ± 12.0%. Also, the solubility in water entry in data set [1] (in words) was “miscible with water”.
Take `O=Cc1ccccc1` [Benzaldehyde]: the “Average % Mortality ± S.E. Treatment” value with free-running adult mites (setting [2]) is given as 55 ± 12.6%; in the data set on free-running adult mites (setting [3]), 100%. The solubility in water entry in data set [1] is on record as “about 350 parts water”.
`CCCC(=O)OCC` [Ethyl Butyrate, Ethyl butyrate]: the “Average % Mortality ± S.E. Treatment” value in the data set with free-running adult mites (in vivo) amounted to 81.2 ± 12.0%. Also, the solubility in water entry in data set [1] is listed as “about 150 parts water”.
As to `CCCCCCC=O` [Heptaldehyde], the “% Mortality Treatment” value with free-running adult mites (in vivo) is reported as 100%.
